# Calls of active or inactive are those of the source.
# Tests used:
# [1] = molecular target: Eukaryotic translation initiation factor 4E (Mus musculus, UniProt P63073); assay: eIF4E–eIF4G protein interaction inhibitors, dose response, biochemical, TR-FRET (AID 855); format: functional;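 note: potency for disrupting eIF4E binding to eIF4GI seen as loss of FRET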
# [2] = molecular target: T1, DNA repair protein RAD52 homolog (Homo sapiens, UniProt P43351); format: functional, biochemical
# T1 sequence (P43351 whole entry): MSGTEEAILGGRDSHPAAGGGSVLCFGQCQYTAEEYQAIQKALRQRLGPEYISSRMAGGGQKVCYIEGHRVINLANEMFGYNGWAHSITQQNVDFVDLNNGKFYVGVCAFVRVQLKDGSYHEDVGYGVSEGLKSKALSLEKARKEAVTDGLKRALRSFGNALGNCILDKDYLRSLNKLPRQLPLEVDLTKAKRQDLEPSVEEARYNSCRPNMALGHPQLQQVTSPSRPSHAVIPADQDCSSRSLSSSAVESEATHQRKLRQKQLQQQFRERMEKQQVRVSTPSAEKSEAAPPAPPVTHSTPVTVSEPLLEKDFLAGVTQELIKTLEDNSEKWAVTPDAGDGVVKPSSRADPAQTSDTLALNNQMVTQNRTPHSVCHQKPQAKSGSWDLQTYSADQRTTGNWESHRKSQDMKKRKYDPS
# [3] = molecular target: T2, Heat shock factor protein 1 (Mus musculus, UniProt P38532); assay: HSF1 potentiators in luciferase reporter cells, confirmation, cell-based, NIH3T3, luminescence, dose retest (AID 435004); format: functional;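 note: stress induced by proteasome inhibitor MG132 added 30 min after compound; luciferase reporter driven by HSF1 response element in NIH3T3 cells; actives raise luminescence as potentiators of the MG132 stress response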
# T2 sequence (P38532 whole entry): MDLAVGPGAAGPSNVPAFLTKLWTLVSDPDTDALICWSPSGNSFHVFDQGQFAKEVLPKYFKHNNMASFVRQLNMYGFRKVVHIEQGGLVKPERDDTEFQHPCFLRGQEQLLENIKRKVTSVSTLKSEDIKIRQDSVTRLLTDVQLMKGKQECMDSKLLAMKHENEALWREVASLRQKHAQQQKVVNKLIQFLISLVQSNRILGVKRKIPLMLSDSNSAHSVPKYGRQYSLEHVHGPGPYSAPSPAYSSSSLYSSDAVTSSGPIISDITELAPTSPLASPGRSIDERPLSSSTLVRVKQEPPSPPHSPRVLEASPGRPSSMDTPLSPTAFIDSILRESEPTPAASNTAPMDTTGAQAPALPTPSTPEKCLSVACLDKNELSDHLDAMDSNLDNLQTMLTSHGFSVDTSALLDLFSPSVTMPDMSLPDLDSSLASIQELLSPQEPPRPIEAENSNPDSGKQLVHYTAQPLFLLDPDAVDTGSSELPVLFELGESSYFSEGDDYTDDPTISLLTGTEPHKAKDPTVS
# SUMO-activating enzyme [4] = molecular target: T3, SUMO-activating enzyme (Homo sapiens, UniProt Q9UBT2); assay: SUMOylation inhibitor hit validation, confirmation, SUMOylation inhibitor project, biochemical, AlphaScreen (AID 2018); format: functional
# [5] = molecular target: T4, Carboxy-terminal domain RNA polymerase II polypeptide A small phosphatase 1 (Homo sapiens, UniProt Q9GZU7); assay: inhibitors of CTDSP1, concentration-response testing, biochemical assay, absorbance-based, actives from ultra-high-throughput screening (AID 540297); format: functional
# T4 sequence (Q9GZU7 whole entry): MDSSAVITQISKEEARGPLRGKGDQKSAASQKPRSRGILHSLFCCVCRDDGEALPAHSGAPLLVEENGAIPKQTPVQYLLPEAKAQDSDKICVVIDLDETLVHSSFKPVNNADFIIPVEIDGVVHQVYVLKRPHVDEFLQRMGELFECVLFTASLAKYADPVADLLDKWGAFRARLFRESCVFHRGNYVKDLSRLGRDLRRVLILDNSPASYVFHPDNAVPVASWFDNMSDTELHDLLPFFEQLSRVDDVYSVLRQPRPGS
# SUMO-activating enzyme [6] = molecular target: T3, SUMO-activating enzyme; assay: inhibitors of in vitro SUMOylation cascade, primary screen, biochemical, HTRF, uHTS (AID 2006); format: protein-complex assay
# [7] = Vero E6 cell cytotoxicity, dose response, cytotoxicity control for non-replicating M. tuberculosis project, secondary assay (AID 492998); format: functional, VeroE6; settings: Vero C1008
# [8] = HepG2 cell cytotoxicity, dose response, cytotoxicity control for non-replicating M. tuberculosis project (AID 489018); format: functional; settings: Mycobacterium tuberculosis
# cells [9] = format: functional, cell-based
# [10] = THP-1 cell cytotoxicity, dose response, cytotoxicity control for non-replicating M. tuberculosis project (AID 489025); format: functional
# cells [11] = format: functional, cell-based; remark: listed apart in the source
# Bcl-2-related protein A1 = molecular target: T5, Bcl-2-related protein A1 (Mus musculus, UniProt Q07440); format: functional;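 note: confirmatory dose–response counterscreen on Bfl-1, used to check hits from a UBC13 polyubiquitin inhibitor campaign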
# T5 sequence (Q07440 whole entry): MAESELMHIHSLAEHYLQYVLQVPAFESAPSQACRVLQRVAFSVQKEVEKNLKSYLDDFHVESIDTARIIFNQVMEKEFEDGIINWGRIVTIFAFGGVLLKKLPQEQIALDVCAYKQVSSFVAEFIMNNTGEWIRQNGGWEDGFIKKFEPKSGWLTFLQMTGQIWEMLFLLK
# [12] = molecular target: T6, Ubiquitin-conjugating enzyme E2 N (Homo sapiens, UniProt P61088); format: functional
# T6 sequence (P61088 whole entry): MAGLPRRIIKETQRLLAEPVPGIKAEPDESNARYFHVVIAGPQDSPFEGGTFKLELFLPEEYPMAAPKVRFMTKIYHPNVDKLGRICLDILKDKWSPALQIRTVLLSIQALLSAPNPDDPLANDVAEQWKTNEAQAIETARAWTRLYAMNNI
# [13] = molecular target: T6, Ubiquitin-conjugating enzyme E2 N; format: functional; remark: listed apart in the source
# [14] = HEp-2 cell cytotoxicity, dose response, cytotoxicity control for RSV inhibitor project, HTS (AID 2410); format: functional; settings: human respiratory syncytial virus
# [15] = molecular target: Glyceraldehyde-3-phosphate dehydrogenase (Homo sapiens, UniProt P04406)
# [16] = molecular target: T7, Alkaline phosphatase, tissue-nonspecific isozyme (Homo sapiens, UniProt P05186); assay: human TNAP enzyme inhibitors, SAR follow-up, biochemical, luminescent, dose response (AID 1056)
# T7 sequence (P05186 whole entry): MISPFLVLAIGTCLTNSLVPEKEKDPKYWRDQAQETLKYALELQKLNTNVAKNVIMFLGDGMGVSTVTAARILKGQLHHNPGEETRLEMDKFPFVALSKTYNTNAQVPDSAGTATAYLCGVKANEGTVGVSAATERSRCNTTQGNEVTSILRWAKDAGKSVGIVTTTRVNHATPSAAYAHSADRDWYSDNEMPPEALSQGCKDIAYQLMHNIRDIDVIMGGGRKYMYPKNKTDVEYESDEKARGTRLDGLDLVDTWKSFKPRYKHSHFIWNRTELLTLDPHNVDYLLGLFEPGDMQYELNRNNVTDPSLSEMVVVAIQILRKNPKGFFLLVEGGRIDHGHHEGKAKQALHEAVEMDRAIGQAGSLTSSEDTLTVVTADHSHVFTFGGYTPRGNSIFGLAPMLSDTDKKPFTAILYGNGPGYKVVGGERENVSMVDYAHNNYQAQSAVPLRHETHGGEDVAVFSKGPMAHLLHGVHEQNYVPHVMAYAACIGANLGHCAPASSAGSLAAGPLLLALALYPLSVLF
# [17] = molecular target: Induced myeloid leukemia cell differentiation protein Mcl-1 (Homo sapiens, UniProt Q07820); format: functional
# [18] = molecular target: T8, Replicative DNA helicase DnaB (Mycobacterium tuberculosis, UniProt P9WMR3); assay: DnaB intein splicing inhibitors, dose response, biochemical, cell-free fluorescence (AID 449749); format: functional
# T8 sequence (P9WMR3 whole entry): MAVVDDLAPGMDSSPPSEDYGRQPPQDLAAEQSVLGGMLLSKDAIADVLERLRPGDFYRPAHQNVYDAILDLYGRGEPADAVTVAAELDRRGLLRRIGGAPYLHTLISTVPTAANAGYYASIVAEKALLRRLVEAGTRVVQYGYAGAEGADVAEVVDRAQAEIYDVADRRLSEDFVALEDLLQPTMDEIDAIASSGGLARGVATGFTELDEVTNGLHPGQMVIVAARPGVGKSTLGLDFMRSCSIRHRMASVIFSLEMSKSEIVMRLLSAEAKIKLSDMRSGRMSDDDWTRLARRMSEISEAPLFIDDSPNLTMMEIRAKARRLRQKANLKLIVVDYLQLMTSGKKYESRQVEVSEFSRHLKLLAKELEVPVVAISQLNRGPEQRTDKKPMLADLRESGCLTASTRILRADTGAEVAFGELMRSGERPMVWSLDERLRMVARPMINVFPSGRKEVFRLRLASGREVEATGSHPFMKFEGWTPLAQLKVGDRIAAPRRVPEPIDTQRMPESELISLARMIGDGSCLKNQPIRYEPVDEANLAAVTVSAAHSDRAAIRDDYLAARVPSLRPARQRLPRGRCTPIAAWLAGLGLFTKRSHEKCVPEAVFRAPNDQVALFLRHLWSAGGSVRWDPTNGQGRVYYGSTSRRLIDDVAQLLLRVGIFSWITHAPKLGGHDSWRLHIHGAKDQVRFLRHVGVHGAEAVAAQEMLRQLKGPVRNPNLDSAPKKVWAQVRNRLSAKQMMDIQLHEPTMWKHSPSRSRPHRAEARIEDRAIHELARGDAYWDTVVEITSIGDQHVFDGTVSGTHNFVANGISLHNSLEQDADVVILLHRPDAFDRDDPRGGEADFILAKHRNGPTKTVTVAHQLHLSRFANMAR
# Protein RecA = molecular target: T9, Protein RecA (Mycobacterium tuberculosis, UniProt P9WHJ3); assay: Fluorescence Cell-Free Homogeneous Dose Retest to Identify Inhibitors of RecA-Intein Splicing Activity. [Related pubchem assays (depositor defined):AID2097, AID2223, AID489010, AID492950]; format: functional
# T9 sequence (P9WHJ3 whole entry): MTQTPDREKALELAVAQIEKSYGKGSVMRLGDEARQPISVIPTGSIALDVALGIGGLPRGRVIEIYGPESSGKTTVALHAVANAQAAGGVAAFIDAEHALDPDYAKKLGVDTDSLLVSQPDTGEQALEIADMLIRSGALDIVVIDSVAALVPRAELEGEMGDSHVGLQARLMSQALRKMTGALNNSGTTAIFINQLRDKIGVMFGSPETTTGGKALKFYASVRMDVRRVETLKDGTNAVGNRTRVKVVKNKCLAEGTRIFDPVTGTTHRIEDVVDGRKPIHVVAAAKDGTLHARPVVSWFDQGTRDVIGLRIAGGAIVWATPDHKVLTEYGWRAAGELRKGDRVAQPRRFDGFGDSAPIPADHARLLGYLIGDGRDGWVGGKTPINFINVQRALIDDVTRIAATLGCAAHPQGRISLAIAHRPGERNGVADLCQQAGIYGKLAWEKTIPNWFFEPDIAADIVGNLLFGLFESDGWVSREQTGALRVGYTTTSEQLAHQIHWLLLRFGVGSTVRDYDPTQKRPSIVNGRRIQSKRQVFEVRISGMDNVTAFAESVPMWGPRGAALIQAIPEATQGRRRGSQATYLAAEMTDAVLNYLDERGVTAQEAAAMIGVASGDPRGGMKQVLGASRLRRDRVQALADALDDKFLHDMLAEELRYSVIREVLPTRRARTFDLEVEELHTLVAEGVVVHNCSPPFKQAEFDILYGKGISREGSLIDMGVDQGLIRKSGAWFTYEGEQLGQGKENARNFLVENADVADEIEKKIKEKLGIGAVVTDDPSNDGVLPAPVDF
# T3 sequence (Q9UBE0 whole entry, the tested form may be a part): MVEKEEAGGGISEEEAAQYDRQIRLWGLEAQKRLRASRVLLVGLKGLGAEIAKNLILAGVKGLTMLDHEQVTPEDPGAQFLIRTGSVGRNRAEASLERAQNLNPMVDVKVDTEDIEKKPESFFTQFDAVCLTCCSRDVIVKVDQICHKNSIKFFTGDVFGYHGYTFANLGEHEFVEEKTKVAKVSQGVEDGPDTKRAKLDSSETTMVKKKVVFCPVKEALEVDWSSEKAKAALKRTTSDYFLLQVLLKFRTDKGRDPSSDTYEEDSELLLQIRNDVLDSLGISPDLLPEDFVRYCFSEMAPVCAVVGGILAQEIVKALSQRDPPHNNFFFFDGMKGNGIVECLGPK
# T3 sequence (Q9UBT2 whole entry, the tested form may be a part): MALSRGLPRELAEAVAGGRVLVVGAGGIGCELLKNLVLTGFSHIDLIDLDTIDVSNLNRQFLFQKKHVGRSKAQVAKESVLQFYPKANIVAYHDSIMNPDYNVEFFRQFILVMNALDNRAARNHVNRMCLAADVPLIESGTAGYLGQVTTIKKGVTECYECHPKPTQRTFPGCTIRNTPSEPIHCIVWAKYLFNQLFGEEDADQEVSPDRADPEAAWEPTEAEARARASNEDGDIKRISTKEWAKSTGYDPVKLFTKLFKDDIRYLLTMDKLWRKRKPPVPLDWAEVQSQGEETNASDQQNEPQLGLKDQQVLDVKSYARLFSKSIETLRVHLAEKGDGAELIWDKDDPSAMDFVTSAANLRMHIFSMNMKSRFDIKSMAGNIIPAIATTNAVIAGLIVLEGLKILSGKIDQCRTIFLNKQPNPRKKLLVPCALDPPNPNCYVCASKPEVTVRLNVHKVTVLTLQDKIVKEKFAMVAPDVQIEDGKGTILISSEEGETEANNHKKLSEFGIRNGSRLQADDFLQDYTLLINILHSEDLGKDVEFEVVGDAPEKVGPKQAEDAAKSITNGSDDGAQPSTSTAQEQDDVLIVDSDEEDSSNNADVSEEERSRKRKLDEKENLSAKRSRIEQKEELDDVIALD
# Chain of Glyceraldehyde-3-phosphate dehydrogenase (P04406 whole entry): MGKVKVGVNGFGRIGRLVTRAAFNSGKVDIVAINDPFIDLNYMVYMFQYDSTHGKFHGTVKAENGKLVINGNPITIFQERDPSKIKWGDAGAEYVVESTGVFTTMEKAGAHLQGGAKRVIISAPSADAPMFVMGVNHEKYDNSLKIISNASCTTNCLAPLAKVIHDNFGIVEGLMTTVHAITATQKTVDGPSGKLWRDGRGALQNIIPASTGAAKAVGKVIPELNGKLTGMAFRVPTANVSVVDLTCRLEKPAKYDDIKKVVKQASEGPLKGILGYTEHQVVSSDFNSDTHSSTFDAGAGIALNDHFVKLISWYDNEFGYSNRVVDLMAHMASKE
# Chain of Eukaryotic translation initiation factor 4E (P63073 whole entry): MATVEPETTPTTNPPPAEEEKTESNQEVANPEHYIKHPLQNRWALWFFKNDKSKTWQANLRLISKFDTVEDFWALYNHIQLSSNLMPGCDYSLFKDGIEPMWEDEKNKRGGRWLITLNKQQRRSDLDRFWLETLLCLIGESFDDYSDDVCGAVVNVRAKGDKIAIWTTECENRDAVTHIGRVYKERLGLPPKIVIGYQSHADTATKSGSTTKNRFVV
# Chain of Induced myeloid leukemia cell differentiation protein Mcl-1 (Q07820 whole entry): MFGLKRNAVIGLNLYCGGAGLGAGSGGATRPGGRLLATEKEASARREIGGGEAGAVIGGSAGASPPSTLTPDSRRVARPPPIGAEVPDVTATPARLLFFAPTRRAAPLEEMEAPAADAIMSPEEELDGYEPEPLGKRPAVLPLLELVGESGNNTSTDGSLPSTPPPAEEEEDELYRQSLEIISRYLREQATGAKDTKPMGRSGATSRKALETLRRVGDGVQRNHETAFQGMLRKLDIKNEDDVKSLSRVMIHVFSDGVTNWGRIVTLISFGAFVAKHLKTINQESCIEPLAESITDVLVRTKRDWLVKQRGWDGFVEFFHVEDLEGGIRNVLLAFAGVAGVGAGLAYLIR
compound,measurement,setting,value
CN1CCN(CCCNC(=O)c2ccc(/C=C3\Sc4ccccc4N(Cc4ccc(F)cc4)C3=O)cc2)CC1,IC50,[1],50 µM (inactive)
same,AC50,[2],8.2 µM (active)
O=C(N/N=C/c1ccc(-c2cccc([N+](=O)[O-])c2)o1)c1ccccc1O,EC50,[3],> 260 µM (inactive)
same,IC50,SUMO-activating enzyme [4],16.3 µM (active)
same,IC50,[5],3.68 µM (active)
same,IC50,SUMO-activating enzyme [6],15.9 µM (active)
O=C(CCc1ccccc1)N/N=C/c1cc(Br)ccc1O,CC50,[7],12.3 µM (active)
same,CC50,[8],13.5 µM (active)
same,EC50,cells [9],286 µM (active)
same,CC50,[10],6.36 µM (active)
same,EC50,cells [11],261 µM (active)
CCC(OCC(O)CN1CCN(CCN2C(=O)c3cccc4cccc(c34)C2=O)CC1)c1ccccc1 (stereo unspecified),IC50,Bcl-2-related protein A1,> 20 µM (inactive)
same,IC50,[12],12.4 µM (active)
same,IC50,[13],9.26 µM (active)
Cc1ccc(C2=NN(C(=O)CCC(=O)O)C(c3cn(-c4ccccc4)nc3-c3ccc(C)cc3)C2)cc1 (stereo unspecified),CC50,[14],24.8 µM (active)
same,IC50,SUMO-activating enzyme [4],4.8 µM (active)
same,IC50,SUMO-activating enzyme [6],20.1 µM (active)
COc1ccc(Cn2c(SCC(=O)NCc3ccco3)nc3ccsc3c2=O)cc1,IC50,Bcl-2-related protein A1,> 20 µM (inactive)
same,IC50,[12],10.4 µM (active)
same,IC50,[13],14.4 µM (active)
COC(=O)c1cc(-c2ccc(OC)cc2)[nH]n1,IC50,[15],> 100 µM (not active)
same,IC50,[16],2.33 µM (active)
Nc1ccc(N)c(C(=O)O)c1,IC50,[17],1.59 µM (active)
same,AC50,[18],6.81 µM (active)
same,EC50,Protein RecA,3.76 µM (active)
same,IC50,[1],13.4 µM (active)
O=C(N/N=C/c1ccc([N+](=O)[O-])o1)c1cc2c(ccc3ccccc32)o1,IC50,SUMO-activating enzyme [4],28.4 µM (active)
same,IC50,SUMO-activating enzyme [6],11 µM (active)
same,IC50,[1],50 µM (inactive)
CC(OC(=O)c1cc(-c2ccc(Br)cc2)[nH]n1)C(=O)NC(C)(C)C (stereo unspecified),IC50,[15],> 100 µM (not active)
same,IC50,[16],19.5 µM (active)
O=S(=O)(Nc1ccncn1)c1ccccc1,IC50,[15],> 100 µM (not active)
same,IC50,[16],> 100 µM (inactive)
Cc1ccccc1C(=O)N1CCN(c2ccc(NC(=S)NC(=O)c3cccs3)cc2)CC1,IC50,Bcl-2-related protein A1,> 20 µM (inactive)
same,IC50,[12],10.8 µM (active)
same,IC50,[13],15.6 µM (active)

# — ChEMBL document CHEMBL1201862, “PubChem BioAssay data set” (2004)
